US20260116847A1 (priority 2023, published 2026)
Values belong to the compound of their own block, whether it stands above or below them.

How the values were obtained:
[1] = Solubility tests in water; type: physicochemical; settings: comparison of forms I, II and III
Protocol: Solubility tests were performed by dissolving samples of pure forms of marimastat in water.

[2] = Thermogravimetric analysis (TGA); type: physicochemical; settings: 10° C./min; for weight loss (TG): 25° C.-195° C.; for degradation temperature (TG): range 25° C.-320° C.
Protocol: Thermogravimetric analysis for the crystalline polymorphic form I, II and III was performed using a Mettler Toledo TGA/DSC1 apparatus. The sample was weighed in an aluminum pan closed with an aluminum cover with holes.
[…] […] The degradation occurred above 200° C. The TG analysis proves that the crystalline polymorphic form I of marimastat exists in the anhydrous form.
[…] […] The degradation occurred above 200° C. The TG analysis proves that the crystalline polymorphic form II of marimastat exists in the anhydrous form.
This sample was analyzed by TGA-EGA. The analysis was performed at a temperature of 25° C.-320° C. at a rate of 10° C./min. […] The degradation occurred above 200° C. The TG analysis proves that the crystalline polymorphic form III of marimastat exists in the anhydrous form.

[3] = Microscopic examinations / bulk density; type: physicochemical; settings: comparison of the forms
Protocol: Microscopic examinations were performed using an optical microscope or electron microscope.

[4] = Stability of the forms I, II and III stirred together in various solvents, XRPD; type: physicochemical; settings: for thermodynamic stability of the form: maceration of the mixture of all three forms in different solvents, room temperature, 4 days; for XRPD form after stirring: 25 °C, 4 d
Text: The remaining 7 solvents gave the initial mixture of three polymorphic forms. Thus, when using the mixture of all three forms for maceration in different solvents, complete disappearance of the form II and the form III, complete disappearance of the form II, or all three forms remaining in the mixture were observed. The complete disappearance of the form I was not observed in any of the experiments.

[5] = Stability of the form II in various solvents at room temperature, XRPD; type: physicochemical; settings: for XRPD form after stirring: 25 °C, 4 d
Protocol: The stability of the form II in various solvents at room temperature was tested. Experiments were performed by suspending the form II in 1 ml of solvent and the formed suspension was stirred at room temperature at 25° C. for 4 days. Then, the precipitate was filtered off and the samples were dried at a temperature of 30° C./100 mbar for one hour, followed by XRPD analysis.

[6] = Stability studies of solid forms under storage conditions, XRPD; type: physicochemical; settings: 25° C./100% RH and 40° C./75% RH 7 days; 30°/100 mbar 1 hour; room temperature 1 year; above 150° C.
Protocol: Stability studies of the amorphous form, pure crystalline polymorphic forms I, II and III and the mixture of the crystalline polymorphic forms I and III were carried out under the following conditions: 25° C./100% RH (relative humidity) and 40° C./75% RH (relative humidity) for 7 days, at 30°/100 mbar for 1 hour, at room temperature for 1 year, and also at elevated temperature (above 150° C.).

[7] = tested on: tumor-specific antigens (CEA, CA 19/9, CA 125, prostate-specific antigen); settings: meta-analysis of phase I/II trials, over 400 patients, solid tumors; cited from earlier work
[8] = tested on: kainic acid-induced status epilepticus model; settings: mouse study; cited from earlier work

SMILES: CNC(=O)[C@@H](NC(=O)[C@H](CC(C)C)[C@H](O)C(=O)NO)C(C)(C)C [form I]
- rate of dissolution in water [1]: dissolves the slowest
- weight loss (TG) [2]: 0.3%
- degradation temperature (TG) [2]: above 200 °C
- bulk density [3]: highest and comparable bulk density
- thermodynamic stability of the form [4]: most thermodynamically stable
- thermodynamic stability of the form ([5]; form II stirred in solvents, 25° C., 4 days): greatest thermodynamic stability
- stability by XRPD (changes in diffraction lines) [6]: stable

SMILES: CNC(=O)[C@@H](NC(=O)[C@H](CC(C)C)[C@H](O)C(=O)NO)C(C)(C)C [Marimastat, (2R,3S)—N-1-((S)-3,3-dimethyl-1-methylamino-1-oxobutan-2-yl)-N-4,3-dihydroxy-2-isobutylsuccinamide]
- growth indicators of tumor-specific antigens [7]: significantly reduced all four growth indicators of tumor-specific antigens in a dose-dependent manner
- duration and number of seizures [8]: reduced the duration and number of seizures

SMILES: CNC(=O)[C@@H](NC(=O)[C@H](CC(C)C)[C@H](O)C(=O)NO)C(C)(C)C [form II]
- weight loss (TG) [2]: 0.2%
- degradation temperature (TG) [2]: above 200 °C
- bulk density [3]: highest and comparable bulk density
- thermodynamic stability of the form [4]: kinetic forms
- XRPD form after stirring ([5]; 2-propanol, 30 mg/mL): Form II
- XRPD form after stirring ([5]; acetonitrile, 10 mg/mL): Form I
- XRPD form after stirring ([5]; butyl acetate, 10 mg/mL): Form Il
- XRPD form after stirring ([5]; ethanol, 10 mg/mL): Form II
- XRPD form after stirring ([5]; methanol, 110 mg/mL): Form I
- XRPD form after stirring ([5]; methylcyclohexane, 10 mg/mL): Form II
- XRPD form after stirring ([5]; methylene chloride, 20 mg/mL): Form II
- XRPD form after stirring ([5]; p-xylene, 20 mg/mL): Form II
- XRPD form after stirring ([5]; water, 30 mg/mL): Form II
- stability by XRPD (changes in diffraction lines) [6]: stable

SMILES: CNC(=O)[C@@H](NC(=O)[C@H](CC(C)C)[C@H](O)C(=O)NO)C(C)(C)C [form III]
- rate of dissolution in water [1]: fastest soluble in water
- weight loss (TG) [2]: 0.4%
- degradation temperature (TG) [2]: above 200 °C
- thermodynamic stability of the form [4]: kinetic forms
- stability by XRPD (changes in diffraction lines) [6]: stable

The next lines start with the values.

- XRPD form after stirring ([4]; 2-propanol, 30 mg/mL): Form I + Form III
- XRPD form after stirring ([4]; acetone, 10 mg/mL): Form I
- XRPD form after stirring ([4]; acetonitrile, 10 mg/mL): Form I
- XRPD form after stirring ([4]; butyl acetate, 10 mg/mL): Form I + Form II + Form III
- XRPD form after stirring ([4]; dimethoxyethane, 10 mg/mL): Form I
- XRPD form after stirring ([4]; ethanol, 10 mg/mL): Form I
- XRPD form after stirring ([4]; heptane, 10 mg/mL): Form I + Form II + Form III
- XRPD form after stirring ([4]; methanol, 110 mg/mL): Form I
- XRPD form after stirring ([4]; methyl isobutyl ketone, 10 mg/mL): Form I + Form II + Form III
- XRPD form after stirring ([4]; methyl tert-butyl ether, 10 mg/mL): Form I + Form III
- XRPD form after stirring ([4]; methylcyclohexane, 10 mg/mL): Form I + Form II + Form III
- XRPD form after stirring ([4]; methylene chloride, 10 mg/mL): Form I + Form II + Form III
- XRPD form after stirring ([4]; p-xylene, 10 mg/mL): Form I + Form II + Form III
- XRPD form after stirring ([4]; tetrahydrofuran, 10 mg/mL): Form I
- XRPD form after stirring ([4]; toluene, 10 mg/mL): Form I + Form II + Form III
- XRPD form after stirring ([4]; water, 30 mg/mL): Form I + Form III
SMILES: CNC(=O)[C@@H](NC(=O)[C@H](CC(C)C)[C@H](O)C(=O)NO)C(C)(C)C [mixture of three polymorphic forms]

- stability by XRPD (changes in diffraction lines) [6]: stable
SMILES: CNC(=O)[C@@H](NC(=O)[C@H](CC(C)C)[C@H](O)C(=O)NO)C(C)(C)C [mixture of the forms I and III]
